Several values for one entry are separate records, joined by “and”; a condition that tells them apart may be missing. Equal values may be shown once. Read-outs that look alike come from different tables or passages of the source.
Assays:
[1] = test system: ApoE ko mice fed with high fat diet
Text: 10 ApoE ko mice were fed with regular chow diet and used as negative control group. 50 ApoE ko mice were fed with high fat diet (35% kcal fat, 1% cholesterol) for 8 weeks, and then the plasma samples were collected for lipid profile measurement before the treatment. 50 ApoE ko mice were assigned into 5 groups based on the fasting overnight plasma TC and HDL level.
19 Mar. 2012 to 6 Apr. 2012: Group the mice based on the TC and HDL level and start the treatment with 3 doses of antibody APOA1 by i.p daily on the weekday (The first dose was administered by iv injection
13 Apr. 2012-14 May 2012: The treatment with antibody APOA1 was changed to i.p injection every two days (Monday, Wednesday, and Friday) per client's instruction.
Antibody products were administrated by intraperitoneal injection every two days (Monday, Wednesday, and Friday). and the positive compound was administered by p.o every day.
5.4. Body weight and blood glucose measurement: The body weight was weighed weekly during the period of treatment. The fasting overnight blood glucose was measured at the end of study by Roche glucometer.
5.5 24 h food intake measurement: 24 hours food intake for each cage was measured weekly
5.6. Plasma lipid profile measurement: About 300 ul of blood sample was collected from the orbital vein for each mouse and centrifuged at 7000 rpm for 5 min at 4° C. and the plasma lipid profile was measured by Roche Modular automatic biochemistry analyzer in DaAn Medical Laboratory
After RAAS antibody products treatment for 8 weeks, all mice were sacrificed. Measured body weight and collected blood sample for each mouse. Weighed liver weight and saved a tiny piece of liver into 4% paraformaldehyde (PFA) fixation solution for further analysis. At same time, take the photos with heart, lung, aortas and two kidneys.
Scanning the glasses slides with the Aperio ScanScope system and analyze with the image proplus software to measure the area of atherosclerotic plaque session. The results were expressed as the percentage of the total aortic surface area covered by lesions. The operation procedure of software was briefly described as follow: Converted the sys version photos into JPG version, then calibrated it and subsequently selected the red regions and then calculate the total area automatically by image proplus software.
(§1) The results were expressed as the Mean±SEM and statistically evaluated by student's t-test.

[2] = test system: HBV; test: HBV mouse hydrodynamic injection model; type: in vivo, BALB/c mice
Experimental: 3.1.1. From day −7 to day 0, all 5 mice in group 4 were administrated i.p./i.v. with test article daily for 8
3″ 1.2″ On day 0, all groups of mice were hydrodynamicly injected via tail vein with pcDNA3.1/HBV plasmid DNA in a volume of normal saline equal to 8% of a mouse body weight. The plasmid DNA solution for injections was prepared one day before injection and then stored in 4GC until injection”
[…] […] For group 4, the last dosing was carried out 4 hours post HOI.
3.1.4. All mice were submandibularly blec! for plasma preparation according to the design in Table 1.
3.1.5. All mice were sacrificed and c!issectec! to obtain livers (two pieces of left lobe, one piece of middle lobe and one piece of right lobe) according to the regimen in table 1. Isolated livers were snap frozen in liquid nitrogen immec!iately upon collected.
3.2.1.1 Isolate DNA from 50 pi plasma using QIAamp 96 DNA Blood Kit. DNA was eluted with
3.2.12 Run qPCR for HBV DNA quantification.
To eliminate the influence of input HBV plasmid, primers and probe targeting HBV sequence which detect newly replicated HBV DNA and input HBV plasmid DNA and targeting pcDNA3.1 plasmid backbone sequence which only detect the input plasmid DNA were used to do real-time PCR, respectively”
HBV DNA quantity=DNA determined by HBV primer-DNA determined by plasmid primer.
Dilute the plasma 500 fold;
Detect HBsAg level in 50 pl diluted plasma by using HBsAg ELISA kit.
a) Homogenize the liver tissue with Qiagen Tissue Lyser in 10 mM Tris.HCI, 10 mM EDTA, pH7.5.
The total liver DNA was diluted to 10 ng/pl. Use 10 iJI diluted sample to run real-time PCR. HBV DNA quantity=DNA determined by HBV primer-DNA determined by plasmid primer.
a) Load 50 pg DNA for each sample. Run •1.2% agarose gel in 1×TAE.

[3] = test system: New Zealand white rabbit fed with high fat diet; conditions: rabbit, in vivo
Experimental: The treatment groups were given APOAJ via auricular vein once a week Vehicle controls received normal saline via auricular vein once a week. […] The body weight of animal was determined every week and whole blood was drawn every three weeks. The study duration was 19 weeks. At the end of study, all animals were sacrificed. […] Male New Zealand white rabbits were used in this study. […] Blood samples were taken 12 hour after fasting before study to determine the blood lipid parameters. […] Ten to 14 rabbits were in one group. […] First dose was given 1 week before high fat diet. […] 5.2 blood lipid parameters: whole blood was drawn every three weeks. Animals were subject to 12 hour fast before taking blood. […] The upper layer of serum was then separated and examined for total cholesterol (TC), total triglyceride (TG), low density lipoprotein cholesterin (LDL-C), and high density lipoprotein cholesterin (HDL-C). Test reagents were purchased from Shanghai A: The atherosclerosis of aorta (plaque area lj) B: Liver index C: Aorta, liver, heart, arteria carotis, kidney All animals were anesthetized by 20 of ethyl carbamate and then sacrificed with air injection. Abdomen cavity was opened. Whole blood was taken from heart. Heart was harvested along with 7 em of aorta. Then other organs like liver, kidney and arteria carotis were harvested. […] Pictures were taken then. Aorta was cut from aortic arch, opened longitudinally and taken picture. […] One piece of this sample was fixed in fomlalin for further pathological analysis. The weight of liver was determined immediately. Two pieces of specimen were cut from hepatic lobe. One was kept in cryo-preservation tube for lipid analysis and another one was fixed in formalin for further pathological analysis. Animals were fast for 12 hours before taking blood samples via auricular vein. […] Test reagents were purchased from Shanghai Rong Sheng Bio-pharmaceutical Co. Ltd. The aorta was dissected and opened for 7.5 em from aortic arch longitudinally. Pictures were taken and atherosclerosis changing was analyzed.

[4] = test system: Influenza H1N1 A/WSN/33; type: in vivo, BALB/c mice; conditions: oseltamivir 30 mg/kg/day po/bid
[5] = test system: Influenza H1N1 A/WSN/33; type: in vivo, BALB/c mice
[6] = test system: Influenza H1N1 A/WSN/33; type: in vivo, BALB/c mice; remark: listed apart in the source
[7] = test system: db/db mice
Experimental: Fasting 6 hours and overnight blood glucose were measured. 60 db/db mice were assigned into 5 grouped based on the fasting 6 h blood glucose and body weight. […] 8 db/rn lean mice was used as negative control group […]
5.2. Study duration: This study was conducted in two periods: Period 1: Oct. 13, 2011-Feb. […] 13-Mar. 16, 2012: Test 3 antibody products
Feb. 13, 2012: Start the treatment with 3 antibodies by i.p every two days (Monday, Wednesday, Friday) after 8 weeks washout from previous treatment.
Antibody products were administrated by intraperitoneal injection and the positive compound was mixed into food at the dose 30 rng/kg/day.
5.4. Body weight and blood glucose measurement: Fasting 6 hours body weight and blood glucose concentration were measured by Roche giucometer weekly.
5.5. Plasma insulin measurement: About 30 ul of blood sample was collected from the orbital vein for each mouse and centrifuged 7000 rpm at 4° C. for 5 min. Plasma samples were saved in −70 l-::. The plasma insulin level was measured with EUSA kit (CRYSTAL, cat#90080), 5.6. Plasma lipid profile measurement: The plasma lipid profile were measured by the DaAn Clinic central lab.
5.7. Study taken down: After 14 dose antibody products treatment, all mice were sacrificed. Measure body weight and collect blood sample for each mouse. Measure liver weight and save one piece for pathology study and freeze one piece in liquid nitrogen for further analysis in the future. Save pancreas into 4% paraformaldehyde (PFA) fixation solution for future analysis.
as §1

[8] = test system: HCV; test: HCV replicon dose-dependent curves (figure legends, genotype not stated); type: cell-based; conditions: FIG. 44/45 legends
Text: FIGS. 44-1 through 44-18.
FIGS. 451 through 45-18-.
FIGS. 44-1 through 44-18. Dose-dependent curves (CC 50 values)
FIG. 45-1 through 45-18 Dose-dependent curves (EC50 values)

[9] = test system: 4T1-luc breast cancer cells; conditions: vs vehicle group
Experimental: The cell suspension was carried to the animal room in an ice box. […] Totally 80 mice were selected and divided into 10 groups. All mice were monitored daily.
Tumor growth status was monitored by both IVIS Lumina II and a digital caliper twice weekly since the day after cell implantation.
For IVIS Lumina II measurement, bioluminescence intensity of primary tumor and metastatic tumor was obtained according to the following procedure:
1. Tumor-bearing mice were \Neighted and intra peritoneally administered luciferin at a dose of 150 mg/kg (10 ml/kg);
2. After 10 min, mice were pre-anesthetized with the mixture of oxygen and isoflurane. […]
3. ROI data was calculated with IVIS Lumina II software and relative ROI was calculated to express the tumor growth status. […]
Tumor size was measured twice a week in two dimensions using a caliper. and the tumor volume (V) was expressed in mm3 using the formula: V=0.5 a×b2 where a and bare the long and short diameters […]
2. […] Body weights were measured and recorded twice weekly.
TGI (tumor growth inhibition, in percent) was calculated according to the following equation: […]
T/C (%) was calculated based on the tumor volume data collected on Day 27.
The difference between the mean values of tumor volume in treatment and vehicle groups was analyzed for significance using one way ANOVA test at each time point after log transformation.

Compound: CC(C)c1c(C(=O)Nc2ccccc2)c(-c2ccccc2)c(-c2ccc(F)cc2)n1CC[C@@H](O)C[C@@H](O)CC(=O)O [Atorvastatin, reference compound]
- arteriosclerosis plaque lesion in the region of thoracic aorta (root plaque area) ([1]; APOA1 mid dose and low dose, not significant vs vehicle): trend of reducing the arteriosclerosis plaque lesion
- fasting overnight blood glucose ([1]; after 8 weeks treatment vs vehicle): no effect
- atherosclerosis plaque lesion area of aorta ([1]; after 8 weeks treatment, APOA1 low dose): significant reduced the plaque lesion area
- Liver weight ([1]; atorvastatin 20 mg/kg, after 8 weeks treatment): reduced liver weight and the ratio of liver/body weight significantly
- atherosclerosis plaque lesion from the aortic root to right renal artery ([1]; atorvastatin p=0.08): trend of reducing the atherosclerosis plaque lesion
- body weight ([1]; vs vehicle group, atorvastatin after 5 weeks treatment): significantly reduced the body weight

Compound: C=C1[C@H](CO)[C@@H](O)C[C@@H]1n1cnc2c(=O)[nH]c(N)nc21 [ETV, Entecavir]
- HBV intermediate DNA in livers (real-time PCR) ([2]; ETV day 5, RASS 8 prophylactic treatment day 7): significantly decreased the HBV intermediate DNA in liver
- ssDNA, HBV replication intermediate DNA in livers (southern blot) ([2]; RASS 8 prophylactic treatment or ETV treatment): decreased dramatically
- inhibition to the HBV replication (plasma) ([2]; therapeutically treated, from day 3 post HDI to end): significant inhibition
- HBsAg level in plasma (ELISA) ([2]; within 5 days post HBV HDI, RASS 8 therapeutic and prophylactic): didn't have significant inhibition

Compound: CC(C)c1c(C(=O)Nc2ccccc2)c(-c2ccccc2)c(-c2ccc(F)cc2)n1CC[C@@H](O)C[C@@H](O)CC(=O)O [Liptor, reference compound]
- calcification, pathological examination [3]: one animal with calcification

Compound: CCOC(=O)C1=C[C@@H](OC(CC)CC)[C@H](NC(C)=O)[C@@H](N)C1 [Oseltamivir, Oseltamivir phosphate (prodrug)]
- survival [4]: survived completely
- Mean day to death ± S.D. ([5]; H1N1 + Oseltamivir 1 mg/kg, P<0.01 vs vehicle): >10 ± 0.0 days
- survival ([5]; oseltamivir po/bid): survived completely
- body weights dropped by ([6]; mouse, in vivo): < 15%
- survival ([6]; oseltamivir 1 mg/kg orally twice daily for 8 days): survived and 4 out of 5

Compound: CCOC(=O)C1=C[C@@H](OC(CC)CC)[C@H](NC(C)=O)[C@@H](N)C1 [Oseltarnivir]
- Survivor/total ([6]; H1N1 + Oseltamivir po BID, dose cell prints 0.2/0.4 ml/mouse): 4/4
- Mean day to death ± S.D. ([6]; H1N1 + Oseltamivir po BID, dose cell prints 0.2/0.4 ml/mouse, P<0.001 vs vehicle): >14 ± 0.0 days

Compound: CCc1ccc(CCOc2ccc(CC3SC(=O)NC3=O)cc2)nc1 (stereo not drawn) [Pioglitazone]
- dead mice: kidney infection ([7]; Part 1, Positive group (30 mg/kg/day in food)): 1
- dead mice: kidney bleeding ([7]; db/db, mouse, in vivo, 32 days): 1
- fasting overnight BG ([7]; period 1): significantly lower blood glucose
- body weight ([7]; period 1, AFOD 3 doses after 3 weeks, pioglitazone after 2 weeks): significantly increased body weight
- blood glucose (fasting 6 h) ([7]; period 1, pioglitazone after 1 week, AFOD low dose after 8 doses): significantly reduced blood glucose
- blood glucose (fasted 6 h) ([7]; period 2): significant difference on blood glucose
- liver weight and ratio of liver/body weight ([7]; period 2): effect on reducing the ratio
- overnight fasting blood glucose ([7]; period 2, after 4 weeks treatment): significantly reduced the fasting overnight blood glucose level
- plasma triglyceride level ([7]; period 2, after 5 weeks treatment): significantly lowered
- body weight ([7]; period 2, vs vehicle group): effect on increasing body weight
- plasma insulin resistance (HOMA-IR) ([7]; period 2, AFOD after 14 doses (p=0.054), pioglitazone after 5 weeks (p=0.051)): trend on improving insulin resistance

Compound: NC(=O)c1ncn([C@@H]2O[C@H](CO)[C@@H](O)[C@H]2O)n1 [Ribavirin]
- inhibition of HCV [8]: 50%

Compound: Nc1ccn([C@@H]2O[C@H](CO)[C@@H](O)C2(F)F)c(=O)n1 [gemcitabine, reference compound]
- one-way ANOVA analysis on tumor volume changes ([9]; Day 20): *′**
- tumor volume ([9]; gemcitabine since day 13): significant tumor volume reduction

Compound: APOA 1
- Wounded (number of mice) ([1]; APOA 1 high dose group): 1
- Dead (number of mice) ([1]; APOA 1 high dose group, reason: Kidney infection & i.v injection): 2
- Wounded (number of mice) ([1]; APOA 1 mid dose group): 1
- Dead (number of mice) ([1]; APOA 1 mid dose group, reason: Blood collection): 1
